We go through 4 compounds from ChEMBL document CHEMBL5523764, “Discovery of NO Donor-Aurovertin Hybrids as Dual Ferroptosis and Apoptosis Inducers for Treating Triple Negative Breast Cancer” (J Med Chem, 2024).

Calls of active or inactive are those of the source. The rule behind the calls is not given here. Bounds are passed on as bounds.

In general, IC50 refers to the concentration at which inhibition is half-maximal. The LD50 is the dose at which mortality reaches 50%.

In data set [1] the test system is MDA-MB-231. Kind of data set: Antitumor activity against human MDA-MB-231 cells xenografted in nude mouse assessed as reduction in tumor weight at 5 mg/kg, ip administered for 30 days. The class given is functional, organism-based. To be noted: time 30.0 day. A general note: A xenograft is tissue or cells of one species grown in another, often human tumour cells in immunodeficient mice.

The test system of data set [2] is MDA-MB-231. In words: Antitumor activity against human MDA-MB-231 cells xenografted in nude mouse assessed as reduction in tumor size at 5 mg/kg, ip administered for 30 days. To be noted: time 30.0 day. The class given is functional, organism-based.
For data set [3], the system named is MDA-MB-231. Kind of data set: Induction of ferroptosis in human MDA-MB-231 cells xenografted in nude mouse assessed as reduction in GPX4 level at 5 mg/kg, ip administered for 30 days by immunohistochemistry analysis. In kind it is functional, organism-based. To be noted: time 30.0 day.
Data set [4] concerns MDA-MB-231. In words: Induction of NO release in human MDA-MB-231 cells assessed NO concentration by Griess reagent based assay. The class given is functional.
Data set [5] can be described thus: Cytotoxicity against human MCF-10A cells assessed as reduction in cell viability incubated for 72 hrs by MTT assay. In kind it is toxicity, cell-based.
In data set [6] the test system is MDA-MB-231. In words: Antiproliferative activity against human MDA-MB-231 cells assessed as reduction in cell viability incubated for 72 hrs by MTT assay. To be noted: MDA-MB-231, 72 h. In kind it is functional, cell-based.
The nature of data set [7]: Selectivity index, ratio of IC50 for cytotoxicity against human MCF-10A cells to IC50 for antiproliferative activity against human MDA-MB-231 cells. In kind it is toxicity, cell-based. The settings on record: MCF-10A cells versus MDA-MB-231 cells, read-out: Ratio IC50.
The next data set concerns 4T1. Kind of data set: Antiproliferative activity against mouse 4T1 cells assessed as reduction in cell viability incubated for 72 hrs by MTT assay. The class given is functional, cell-based. The settings on record: 4T1, 72 h. For orientation: Tetrazolium assays rely on reduction of a dye to a coloured formazan, in cell work by metabolically active cells.
Data set [8] is described as follows: Toxicity in ip dosed mouse assessed as lethal dose. The class given is organism-based. To be noted: in vivo.
Data set [9] is described as follows: Toxicity in ip dosed mouse assessed as appearance of loose gray stool. To be noted: in vivo. The class given is organism-based.
Data set [10] is described as follows: Toxicity in ip dosed mouse assessed as appearance of messy furs. The settings on record: in vivo. In kind it is organism-based.
A short description of data set [11]: Toxicity in mouse assessed as animal death at >6 mg/kg, ip. In kind it is organism-based. The settings on record: in vivo.
Data set [12] in a line: Toxicity in ip dosed mouse assessed as body weight loss. The class given is organism-based. To be noted: in vivo.

With `COc1cccc2c1C(=O)c1c(O)c3c(c(O)c1C2=O)C[C@@](O)(C(=O)CO)C[C@@H]3O[C@H]1C[C@H](N)[C@@H](O)[C@H](C)O1`, the result in the data set with MDA-MB-231 [1] and in the data set on MDA-MB-231 [2] was Active. Besides, in the data set on MDA-MB-231 [3], the outcome was inactive.
In the data set on MDA-MB-231 [4], `CC[C@H]1O[C@@]2(C)[C@H](OC(C)=O)[C@@]1(C)O[C@@H](/C=C/C=C/C=C/c1oc(=O)cc(OC)c1C)[C@@H]2OC(=O)CCCC(=O)OCc1c(-c2ccc(Cl)cc2)no[n+]1[O-]` gave an Activity of 2.42 µM. Further, the IC50 at 72 h in data set [5] was more than 50 µM. In addition, the half-inhibitory concentration (IC50) with MDA-MB-231 [6] stood at 4.59 µM; in the data set with 4T1, 7.86 µM. Besides, in [7], the selectivity ratio was more than 10.
For the compound `CC[C@H]1O[C@@]2(C)[C@H](OC(C)=O)[C@@]1(C)O[C@@H](/C=C/C=C/C=C/c1oc(=O)cc(OC)c1C)[C@@H]2O`, the LD50 in [8] worked out at 12 mg/kg. The Activity result in data set [9], in [10], in data set [11] and in data set [12] was “Toxic” each time. For the same compound, the IC50 at 72 h in data set [5] is more than 50 µM. Moreover, the IC50 in the data set on MDA-MB-231 [6] was 2.17 µM; in the data set with 4T1, 3.34 µM. Moreover, the selectivity ratio in data set [7] is more than 23.
In the case of `CC[C@H]1O[C@@]2(C)[C@H](OC(C)=O)[C@@]1(C)O[C@@H](/C=C/C=C/C=C/c1oc(=O)cc(OC)c1C)[C@@H]2OC(=O)CCCC(=O)OCc1c(-c2ccc(Br)cc2)no[n+]1[O-]`, the Activity in the data set on MDA-MB-231 [4] turned out to be 2.65 µM. Also, the IC50 at 72 h in [5] was more than 50 µM. Also, the IC50 with MDA-MB-231 [6] came to 4.75 µM; in the data set with 4T1, 4.56 µM. Further, the selectivity ratio in [7] was more than 10.
